Experimental data: patent US20090208539A1, “STABLE ATORVASTATIN FORMULATIONS” (priority 2004, published 2009)

Test: Compatibility test of atorvastatin calcium with excipients (water added, sealed vial, 50° C., two weeks; impurities by HPLC, physical changes)
Assay type: physicochemical
Conditions: for Compatibility: 0.2 ml water added, sealed vial, two weeks
Experimental: In order for an excipient to be used with an embodiment of the formulation of the present invention, it was required to perform acceptably during the compatibility testing. The acceptance criteria for the compatibility test were as follows. […] Physical stability was determined by examining the mixture's appearance in terms of discoloration, liquefaction, dryness and odor or gas.
A granulate or dry mix of the drug substance and each of the excipients requested to the expected ratio in the possible final formulas was prepared. The granulate was prepared manually with a mortar and pestle. The active ingredient is mixed with the ingredient(s) to be tested, then granulated in a mortar and pestle using the aqueous granulation solution. The wet granulate was then dried in an oven at 60° C. down to LOD<5% and then milled.
The compatibility test was performed as follows. Each mixture (blend or granulate) was transferred to a vial, 0.2 ml of purified water was added, and the mixtures were mixed with a Pasteur pipette, which was then broken and inserted in the vial in order to avoid any loss of material.
The vials were then sealed and stored at a temperature of 50° C. for two weeks.
After two weeks the vials were removed, examined for physical changes and were tested for impurities according to the HPLC method (RD 2000-1) as described in greater detail below.
75 ml of diluent was added and the samples were shaken for 30 min, and then diluted to volume with diluent.
5 ml of the above mentioned solution was transferred and diluted in a 10 ml volumetric flask. The diluent for all experiments was water:methanol mixture.
Part of each dry granulate was placed in a 34 ml Securitainer® (a regular secure medicine bottle made from high density polyethylene; available from Jaycare Ltd in the United Kingdom) and placed in incubator at 40° C./75% RH for a 6 month stability study. Next, separate samples containing 1 g of each dry granulate were mixed with 200 μl water (LOD of the blend 16.67%), closed in a glass vial and stored at 50° C. for a 2 week compatibility test.
Results of those compatibility and stability studies are summarized in table 4; a more detailed description of the same results is provided in table 5 below. Stability or compatibility criteria were defined as: maximum known impurity <0.5% (preferably comprising one or both of the Desfluoro (Desfl.) or lactone (Lact.) degradation forms); maximum unknown impurity <0.5%, preferably <0.3%; total impurities <1.5%.
One gram of each blend was mixed with 200 μl purified water (LOD of the blend was 16.67%), placed in a closed glass vial and placed for 2 weeks in an incubator at 50° C. for a compatibility test.

[1] = amorphous atorvastatin calcium, no excipient, 2 weeks, 16.7% LOD

Compatibility (amorphous Atorvastatin Ca dry mixes) | Compatibility (crystalline form VI Atorvastatin Ca granulates) | Desfluoro [1] | Lactone [1] | Max unknown impurity [1] | Total Impurities [1] | SMILES
Stable | Stable |  |  |  |  | CC(C)c1c(C(=O)Nc2ccccc2)c(-c2ccccc2)c(-c2ccc(F)cc2)n1CC[C@@H](O)C[C@@H](O)CC(=O)[O-].CC(C)c1c(C(=O)Nc2ccccc2)c(-c2ccccc2)c(-c2ccc(F)cc2)n1CC[C@@H](O)C[C@@H](O)CC(=O)[O-].[Ca+2] [Vial 1]
 |  | 0.12% | 0.04% | 0.05% | 0.33% | CC(C)c1c(C(=O)Nc2ccccc2)c(-c2ccccc2)c(-c2ccc(F)cc2)n1CC[C@@H](O)C[C@@H](O)CC(=O)[O-].CC(C)c1c(C(=O)Nc2ccccc2)c(-c2ccccc2)c(-c2ccc(F)cc2)n1CC[C@@H](O)C[C@@H](O)CC(=O)[O-].[Ca+2] [Reference (no excipient added)]
